Patent US6525059B1, “Substituted pyrazoles as p38 kinase inhibitors” (G. D. Searle & Company, priority 1998, dated 2003)
pIC50: −log10 of the molar value.

Legend:
[1] = target: T1, human GST-p38 kinase alpha (Homo sapiens, UniProt Q16539); test: p38 kinase in vitro assay, second format, phosphorylation of EGFRP with 33P-ATP; assay type: biochemical; conditions: Table 10, 10% DMSO; @ 1.0 hour; read-out: p38α Kinase Assay IC50
T1 construct: The coding region of the human p38a cDNA was obtained by PCR-amplification from RNA isolated from the human monocyte cell line THP.1; made in house; host or cells: E. coli DH10B
Summary of the method: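 Activated human GST-p38α (pre-activated with GST-MKK6, 1 h, 30 °C) phosphorylates EGFR 21-mer peptide (200 μM) with 50 μM ATP plus γ-33P-ATP, pH 7.5, 60 min at room temperature. Unreacted ATP removed by AG 1×8 resin; supernatant scintillation-counted.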

human TNF = test: TNF inhibition: human whole blood assay; assay type: cell-based; conditions: Homo sapiens, Table 10, human whole blood, LPS; read-out: TNF Inhibition-Human Whole Blood Assay
TNF-α = test: Rat assay: LPS-challenged rats, serum TNF-α by ELISA; assay type: in vivo; conditions: Rattus norvegicus, po

T1 sequence (Q16539 whole entry): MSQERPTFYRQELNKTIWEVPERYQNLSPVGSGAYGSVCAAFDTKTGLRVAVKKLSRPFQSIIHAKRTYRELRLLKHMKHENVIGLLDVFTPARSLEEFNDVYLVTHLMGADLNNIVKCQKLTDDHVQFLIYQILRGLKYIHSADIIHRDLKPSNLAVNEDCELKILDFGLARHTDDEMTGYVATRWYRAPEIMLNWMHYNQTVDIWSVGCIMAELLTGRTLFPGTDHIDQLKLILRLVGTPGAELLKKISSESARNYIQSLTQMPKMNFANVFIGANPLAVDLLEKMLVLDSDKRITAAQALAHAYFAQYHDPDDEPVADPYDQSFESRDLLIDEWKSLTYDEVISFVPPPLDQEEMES

SMILES	pIC50 [1]	pIC50 (human TNF)	melting point [°C]	inhibition in vivo at 5 mg/kg (TNF-α; Table 10, dose 5.0 mg/kg, read-out: Rat LPS Assay % Inhibition) [%]	inhibition in vivo at 84 mg/kg (TNF-α; Table 10, dose […]) [%]	inhibition in vivo at 20 mg/kg (TNF-α; Table 10, dose 20.0 mg/kg) [%]
O=C(C(=C1SCS1)c1ccncc1)c1ccc(Cl)cc1 [Example A-390]	4.82	< 4.60	185.3 to 185.4	–	–	–
CC(C)(C)c1ccc(C(=O)C(=C2SCS2)c2ccncc2)cc1 [Example A-398]	4.34	< 4.60	172.1 to 173.1	–	–	–
Cc1ccc(C(=O)C(=C2SCS2)c2ccncc2)cc1 [Example A-400]	5.32	< 4.60	209.1 to 215.1	–	–	–
C=Cc1ccc(C(=O)C(=C2SCS2)c2ccncc2)cc1 [Example A-403]	5.31	< 4.60	176.6 to 176.7	–	–	–
CCc1ccc(C(=O)C(=C2SCS2)c2ccncc2)cc1 [Example A-404]	5.38	< 4.60	174.8 to 175	–	–	–
Cc1cc(C(=O)C(=C2SCS2)c2ccncc2)ccc1Br [Example A-405]	5.31	< 4.60	167.1 to 167.5	–	–	–
N#Cc1cccc(C(=O)C(=C2SCS2)c2ccncc2)c1 [Example A-406]	5.14	< 4.60	168.6 to 168.7	–	–	–
COc1ccc(-c2n[nH]c(N3CCN(C)CC3)c2-c2ccncc2)cc1 [Example A-415]	–	6.29	259 to 260.2	17	84	–
Clc1ccc(-c2n[nH]c(SCCOC3CCCCO3)c2-c2ccncc2)cc1 (stereo not shown) [Example A-474]	–	6.01	163.2 to 163.5	–	–	59

Further lines, with some results ahead:

pIC50 [1]	pIC50 (human TNF)	melting point [°C]	SMILES	inhibition in vivo at 5 mg/kg (TNF-α; Table 10, dose 5.0 mg/kg, read-out: Rat LPS Assay % Inhibition) [%]	inhibition in vivo at 84 mg/kg (TNF-α; Table 10, dose […]) [%]	inhibition in vivo at 20 mg/kg (TNF-α; Table 10, dose 20.0 mg/kg) [%]
7.39	5.29	243 to 246.8	Cc1ccc(-c2[nH]nc(N3CCN(C)CC3)c2-c2ccncc2)cc1 [Example A-416, 1-[5-(4-methylphenyl)-4-(4-pyridinyl)-1H-pyrazol-3-yl]-4-methylpiperazine]	–	–	–
6.40	6.17	> 300	O=C1CN(Cc2ccccc2)CC(=O)N1c1[nH]nc(-c2ccc(Cl)cc2)c1-c1ccncc1 [Example A-428]	–	–	–
5.55	5.34	262.9	C[S+]([O-])c1[nH]nc(-c2ccc(F)cc2)c1-c1ccncc1 (stereo not shown) [Example A-436]	–	–	–
6.33	5.31	> 300	Clc1ccc(-c2n[nH]c(OC3CCOC3)c2-c2ccncc2)cc1 (stereo not shown) [Example A-443]	–	–	–
5.97	< 4.60	> 300	CC(C)(C)OC(=O)NCCOc1[nH]nc(-c2ccc(Cl)cc2)c1-c1ccncc1 [Example A-445]	–	–	–
6.05	5.47	265.3	COc1[nH]nc(-c2ccc(Cl)cc2)c1-c1ccncc1 [Example A-446]	–	–	–
7.11	4.82	202.1 to 205.4	Fc1ccc(-c2n[nH]c(SCC3OCCO3)c2-c2ccncc2)cc1 [Example A-451]	–	–	–
5.54	6.62	214.7 to 215.8	COc1ccc(CSc2[nH]nc(-c3ccc(F)cc3)c2-c2ccncc2)cc1 [Example A-452]	–	–	–
6.40	< 4.60	192.8 to 195.2	COC(=O)CSc1[nH]nc(-c2ccc(Cl)cc2)c1-c1ccncc1 [Example A-457]	–	–	–
5.06	< 4.60	220.9 to 221	CC(C)(C)OC(=O)N1CCC(Sc2[nH]nc(-c3ccc(Cl)cc3)c2-c2ccncc2)CC1 [Example A-458]	–	–	–
5.78	< 4.60	284 to 288.4	CNC(=O)CSc1[nH]nc(-c2ccc(Cl)cc2)c1-c1ccncc1 [Example A-462]	–	–	–
5.78	< 4.60	168.8 to 169.5	CN(C)CCCNC(=O)CSc1[nH]nc(-c2ccc(Cl)cc2)c1-c1ccncc1 [Example A-463]	–	–	–
6.55	5.29	216.7 to 216.9	N#CCCCSc1[nH]nc(-c2ccc(Cl)cc2)c1-c1ccncc1 [Example A-475]	–	–	–
